Data from patent US20050090520A1 (priority 2003, published 2005).
Where two headings read alike, the source gives them in different places.

Legend:
[1] = cited from earlier work
[2] = rat models; IDDB; cited from earlier work
[3] = biological target: T1, CYP4F3 (Homo sapiens, UniProt Q08477); conditions: cited from earlier work
T1 sequence (Q08477 1-520): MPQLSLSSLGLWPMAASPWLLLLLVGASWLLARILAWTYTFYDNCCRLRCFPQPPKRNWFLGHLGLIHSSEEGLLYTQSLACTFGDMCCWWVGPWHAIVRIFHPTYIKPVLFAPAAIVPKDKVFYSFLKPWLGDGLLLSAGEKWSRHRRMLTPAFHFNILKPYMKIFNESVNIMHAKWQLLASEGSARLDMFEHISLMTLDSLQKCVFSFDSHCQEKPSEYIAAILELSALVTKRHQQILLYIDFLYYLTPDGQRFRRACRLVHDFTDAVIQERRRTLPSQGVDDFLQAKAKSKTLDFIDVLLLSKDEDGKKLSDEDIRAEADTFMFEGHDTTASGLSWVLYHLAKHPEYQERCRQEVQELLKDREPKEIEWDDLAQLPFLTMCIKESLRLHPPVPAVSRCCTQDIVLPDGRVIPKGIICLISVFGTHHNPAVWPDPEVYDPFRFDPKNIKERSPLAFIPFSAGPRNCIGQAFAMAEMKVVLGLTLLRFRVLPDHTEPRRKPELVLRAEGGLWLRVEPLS

[4] = test system: adult neural stem cells (NSCs); test: Intracellular ATP proliferation assay; format: cell-based, mouse; conditions: for Increase in intracellular ATP levels: 10 nM, 3 days
Procedure: (§1) The anterior lateral wall of the lateral ventricle of 5-6 week old mice was enzymatically dissociated at 37° C. for 20 min in 0.8 mg/ml hyaluronidase and 0.5 mg/ml trypsin in DMEM containing 4.5 mg/ml glucose and 80 units/ml DNase. The cells were gently triturated and mixed with three volumes of Neurosphere medium (DMEM/F12, B27 supplement, 125 mM HEPES Ph 7.4) containing 20 ng/ml EGF (unless otherwise stated), 100 units/ml penicillin, and 100 μg/ml streptomycin. After passing through a 70 μm strainer, the cells were pelleted at 160×g for 5 min. The supernatant was subsequently removed and the cells resuspended in Neurosphere medium supplemented as above, plated out in culture dishes and incubated at 37° C. Neurosphere cultures were ready to be split approximately 7 days after plating.
To split the neurosphere cultures, neurospheres were collected by centrifugation at 160×g for 5 min. The conditioned supernatant (conditioned medium) was removed and saved. The neurospheres were resuspended in 0.5 ml Trypsin/EDTA in HBSS (1×), incubated at 37° C. for 2 min, and triturated gently to aid dissociation. Following a further 3 min incubation at 37° C. and trituration, 3 volumes of ice cold NSPH-media-EGF were added to stop further trypsin activity. The cells were pelleted at 220×g for 4 min, and resuspended in a 1:1 mixture of fresh Neurosphere medium and conditioned medium. EGF was supplemented to 20 ng/ml and the culture plated out and incubated at 37° C.
(§2) The adherent cells were seeded at a density of 30,000 cells/well on poly-D-lysine in DMEM/F12 supplemented with 1% fetal calf serum (FCS).
The following experiment was performed in sets of four parallel experiments (i.e., performed in quadruplicate) so that the cells could be used for different assays. […] Cells were lysed with 0.1% Triton-X100 in Tris-EDTA buffer. Intracellular ATP was measured using an ATP-SL kit according to the manufacturer's instructions (BioThema, Sweden). […] For each experiment, wells were visually examined for signs of neurogenesis and counted to confirm the results of the assay. Results were repeatable and statistically significant.

[5] = test system: adult neural stem cells (NSCs); test: BrdU incorporation proliferation assay; format: cell-based, mouse; conditions: 10 nM
Procedure: as §1
To split the neurosphere cultures, neurospheres were collected by centrifugation at 160×g for 5 min. The conditioned supernatant (conditioned medium) was removed and saved. The neurospheres were resuspended in 0.5 ml Trypsin/EDTA in HBSS (1×), incubated at 37° C. for 2 min, and triturated gently to aid dissociation. […]
DNA synthesis is commonly used to measure cell proliferation. […] After incorporation if the pyrimidine analogue into DNA, BrdU was detected by immunoassay. […]

[6] = test system: adult neural stem cells (NSCs); test: Lactate dehydrogenase (LDH) cell death assay; format: cell-based, mouse; conditions: 3 days
Procedure: as §2
The death of cells that occurred during the 3 days was measured as leakage of lactate dehydrogenase (LDH) into the medium. […] The proportion of LDH in the medium to total LDH (medium+cells) gives the percentage of cell death. Treated and untreated cells can thus be compared to rule out apoptosis as the cause for the different results observed in the ATP proliferation assay. The amount of LDH was measured according to the instructions of the manufacturer, Promega, USA (see, also, Chen, et al., 2004).

[7] = monkeys; cited from earlier work
[8] = biological target: T2, S1P4 (Homo sapiens, UniProt O95977); conditions: Mandala et al., 2002; CHO cell membranes; read-out: Binding (IC50) S1P4; cited from earlier work
T2 sequence (O95977 1-384): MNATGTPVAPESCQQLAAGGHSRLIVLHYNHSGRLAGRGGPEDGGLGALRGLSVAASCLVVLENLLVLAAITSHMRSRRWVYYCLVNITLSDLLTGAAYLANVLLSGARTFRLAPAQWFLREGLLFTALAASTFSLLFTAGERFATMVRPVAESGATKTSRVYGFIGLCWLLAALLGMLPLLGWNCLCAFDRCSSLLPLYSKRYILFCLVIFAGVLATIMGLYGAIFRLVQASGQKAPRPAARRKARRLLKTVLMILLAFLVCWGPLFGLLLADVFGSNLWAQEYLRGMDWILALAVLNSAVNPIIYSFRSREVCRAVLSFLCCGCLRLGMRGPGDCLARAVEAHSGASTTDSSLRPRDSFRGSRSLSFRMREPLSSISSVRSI

[9] = rats, cited from earlier work
[10] = biological target: S1P2 (Homo sapiens, UniProt O95136); conditions: Mandala et al., 2002; CHO cell membranes; read-out: Binding (IC50) S1P2; cited from earlier work
S1P2, sequence (O95136 whole entry, species assumed): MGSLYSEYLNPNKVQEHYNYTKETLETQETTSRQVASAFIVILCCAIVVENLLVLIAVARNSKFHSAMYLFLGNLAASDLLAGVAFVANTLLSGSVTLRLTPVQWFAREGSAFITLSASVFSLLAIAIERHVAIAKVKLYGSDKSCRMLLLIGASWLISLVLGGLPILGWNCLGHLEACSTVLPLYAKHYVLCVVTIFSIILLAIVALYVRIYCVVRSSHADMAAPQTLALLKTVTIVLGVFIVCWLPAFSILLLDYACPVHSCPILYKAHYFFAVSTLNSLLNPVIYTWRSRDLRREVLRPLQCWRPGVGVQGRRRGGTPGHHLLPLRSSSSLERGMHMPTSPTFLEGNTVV

[11] = biological target: S1P5 (Homo sapiens, UniProt Q9H228); conditions: Mandala et al., 2002; CHO cell membranes; read-out: Binding (IC50) S1P5; cited from earlier work
S1P5, sequence (Q9H228 whole entry, species assumed): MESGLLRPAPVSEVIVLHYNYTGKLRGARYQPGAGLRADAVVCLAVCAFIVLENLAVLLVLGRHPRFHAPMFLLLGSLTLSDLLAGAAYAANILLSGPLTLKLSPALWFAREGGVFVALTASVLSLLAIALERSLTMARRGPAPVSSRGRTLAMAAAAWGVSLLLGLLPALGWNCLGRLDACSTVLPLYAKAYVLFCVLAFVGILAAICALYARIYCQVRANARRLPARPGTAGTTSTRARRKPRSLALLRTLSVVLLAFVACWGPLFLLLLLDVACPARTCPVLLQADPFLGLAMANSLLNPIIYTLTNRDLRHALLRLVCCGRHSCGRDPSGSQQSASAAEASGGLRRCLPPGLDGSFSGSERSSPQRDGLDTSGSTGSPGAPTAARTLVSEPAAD

[12] = dog models, dosages below 200 mg/kg; IDDB; cited from earlier work
[13] = renal transplant patients, single oral dose 0.25-3 mg, whole blood, 96 hours; cited from earlier work
[14] = dogs; cited from earlier work
[15] = biological target: S1P3 (Homo sapiens, UniProt Q99500); conditions: Mandala et al., 2002; CHO cell membranes; read-out: Binding (IC50) S1P3; cited from earlier work
S1P3, sequence (Q99500 whole entry, species assumed): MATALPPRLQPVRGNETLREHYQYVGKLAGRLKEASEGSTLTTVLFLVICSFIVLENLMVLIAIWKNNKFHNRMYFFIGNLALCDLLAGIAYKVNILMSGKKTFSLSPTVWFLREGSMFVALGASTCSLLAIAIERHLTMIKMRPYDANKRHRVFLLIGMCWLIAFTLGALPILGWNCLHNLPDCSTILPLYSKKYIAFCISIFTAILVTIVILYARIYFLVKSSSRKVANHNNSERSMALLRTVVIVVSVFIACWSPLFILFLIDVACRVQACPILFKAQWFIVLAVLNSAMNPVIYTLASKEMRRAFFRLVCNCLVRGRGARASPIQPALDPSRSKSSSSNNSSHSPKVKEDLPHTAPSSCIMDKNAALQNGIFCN

[16] = primates, 3 mg/kg; IDDB; cited from earlier work
[17] = biological target: T2, S1P4; conditions: read-out: Potency (EC50) S1P4, cited from earlier work

CCCCCCCCc1ccc(CCC(N)(CO)CO)cc1 [FTY720, 2-amino-2-[2-(4-octylphenyl)ethyl]-1,3-propanediol]
Adverse events ([1]; PI renal transplant patients, 0.25-3.5 mg single dose): no serious adverse events
Only observed side effect ([1]; orally administered for immunosuppression): mild and transient bradycardia
LD50 [2]: 300 to 600 mg/kg
Metabolic route [3]: metabolized primarily by CYP4F3 to the corresponding carboxylic acid
Concentration of maximum proliferation effect ([4]; FIG. 2): 0.04 nM
EC50 ([4]; Mus musculus, Neural stem cell, dose-response curve, FIG. 2, read-out: EC50 of in vitro proliferation of NSCs (ATP assay)): 0.02 nM
Increase in intracellular ATP levels ([4]; adherent cells): 42%
Increase in intracellular ATP levels ([4]; suspension cells): 25%
Increase in BrdU incorporation ([5]; adherent cells): 271%
Increase in BrdU incorporation ([5]; suspension cells): 52%
Change in LDH levels between control and treated cells [6]: No significant change
Oral bioavailability [7]: 40%
IC50 [8]: > 5000 nM
T1/2 ([9]; single oral dose 0.1 mg/kg): 18.1 h
T1/2 ([9]; single oral dose 1 mg/kg): 21.6 h
Oral bioavailability [9]: 80%
IC50 [10]: > 10000 nM
IC50 [11]: 2620 nM
Deaths [12]: no deaths were observed
Absorption [13]: slowly absorbed
Cmax and AUC versus dose [13]: proportional to the dose
Oral bioavailability [14]: 60%
IC50 [15]: > 10000 nM
Toxicity [16]: no observed toxicity

CCCCCCCCc1ccc(CCC(N)(CO)COP(=O)(O)O)cc1 (racemic) [FTY720P]
EC50 ([17]; Brinkmann et al., 2002): 7.2 nM
EC50 ([17]; Novartis data): 43 nM
IC50 [8]: 5.9 nM
